Structures are written as SMILES. Converted amounts (≈) assume the structure as drawn.

These results are taken from ChEMBL document CHEMBL5230129, “Antibacterial activities with the structure-activity relationship of coumarin derivatives” (2020).

Common to all, as to assay type: functional
The subject of one experiment is Klebsiella pneumoniae. Kind of experiment: Antibacterial activity against Klebsiella pneumoniae assessed as zone of inhibition incubated for 24 hrs by disk diffusion assay. (In general: A growth-free zone around the sample is the usual read-out of agar diffusion tests.)
The subject of experiment [1] is Escherichia coli. The experiment in a line: Antibacterial activity against Escherichia coli NCIM 2256 assessed as inhibition of bacterial growth incubated for 24 hrs by serial twofold dilution assay.
The test system of the next experiment is Pseudomonas fluorescens. Kind of experiment: Antibacterial activity against Pseudomonas fluorescens NCIM 2173 assessed as inhibition of bacterial growth incubated for 24 hrs by serial twofold dilution assay.
For experiment [2], the system named is Sphingomonas paucimobilis. Kind of experiment: Antibacterial activity against Flavobacterium devorans ATCC 10829 assessed as inhibition of bacterial growth incubated for 24 hrs by serial twofold dilution assay.
Experiment [3] relates to Staphylococcus aureus. The experiment in a line: Antibacterial activity against Staphylococcus aureus MTCC 3160 assessed as inhibition of bacterial growth by broth micro dilution assay.
Experiment [4] concerns Pseudomonas aeruginosa. The experiment in a line: Antibacterial activity against Pseudomonas aeruginosa MTCC 1034 assessed as inhibition of bacterial growth by broth micro dilution assay.
The subject of experiment [5] is Staphylococcus aureus. Kind of experiment: Antibacterial activity against Staphylococcus aureus MTCC 740 assessed as zone of inhibition incubated overnight by Kirby-Bauer disc diffusion method.
In experiment [6] the test system is Escherichia coli. Kind of experiment: Antibacterial activity against Escherichia coli MTCC 1586 assessed as zone of inhibition incubated overnight by Kirby-Bauer disc diffusion method.
Experiment [7] has as its system Staphylococcus aureus. Kind of experiment: Antibacterial activity against Staphylococcus aureus assessed as inhibition of bacterial growth by broth dilution assay. (Broth dilution looks for growth in wells or tubes with falling amounts of substance.)
In experiment [8] the test system is Bacillus subtilis. Kind of experiment: Antibacterial activity against Bacillus subtilis assessed as inhibition of bacterial growth by broth dilution assay.
In experiment [9] the test system is Escherichia coli. Kind of experiment: Antibacterial activity against Escherichia coli MTCC 739 assessed as inhibition of bacterial growth incubated for 24 hrs by spectrophotometric assay.
The test system of a further experiment is Helicobacter pylori. The experiment in a line: Antibacterial activity against Helicobacter pylori ATCC43504 assessed as inhibition of bacterial growth incubated for 72 hrs by micro-dilution broth assay.
The test system of experiment [10] is Staphylococcus aureus. The experiment in a line: Antibacterial activity against Staphylococcus aureus assessed as zone of inhibition incubated for 24 hrs by well-diffusion method.
Experiment [11] relates to Pseudomonas aeruginosa. The experiment in a line: Antibacterial activity against Pseudomonas aeruginosa assessed as zone of inhibition incubated for 24 hrs by well-diffusion method.
Another experiment deals with Micrococcus luteus. Kind of experiment: Antibacterial activity against Micrococcus luteus assessed as zone of inhibition incubated for 24 hrs by well-diffusion method.
The test system of experiment [12] is Escherichia coli. The experiment in a line: Antibacterial activity against Escherichia coli assessed as zone of inhibition incubated for 24 hrs by well-diffusion method.
For experiment [13], the system named is Bacillus subtilis. The experiment in a line: Antibacterial activity against Bacillus subtilis assessed as inhibition of bacterial growth relative to control.
Experiment [14] concerns Escherichia coli. The experiment in a line: Antibacterial activity against Escherichia coli assessed as inhibition of bacterial growth relative to control.
Experiment [15] deals with Escherichia coli. Kind of experiment: Antibacterial activity against Escherichia coli MTCC 40 assessed as zone of inhibition incubated for 24 hrs by well-plate method.
The subject of experiment [16] is Staphylococcus aureus. The experiment in a line: Antibacterial activity against Staphylococcus aureus ATCC-29213 assessed as inhibition of bacterial growth incubated for 16 hrs by agar-well diffusion assay.
Experiment [17] concerns Staphylococcus aureus. The experiment in a line: Antibacterial activity against Staphylococcus aureus NCTC-7447 assessed as zone of inhibition incubated for 24 hrs by paper disk diffusion assay.

With `COc1ccc(Nc2nnc(COc3ccc4c(C)cc(=O)oc4c3)s2)cc1`, the “inhibition zone (IZ)” value with Klebsiella pneumoniae is listed as 15 mm.

On to `Cc1cc(OCc2cn(Cc3ccc(Cl)cc3)nn2)cc2oc(=O)ccc12`, for which the minimum inhibitory concentration (MIC) (in the experiment on Escherichia coli [1]; in the experiment with Pseudomonas fluorescens; in [2]) was 2 µg/mL (≈ 5.24 µM) each time.

Turning to `Cc1cc(=O)oc2c1=CCC(O)C=2C1C(C#N)=C(N)Oc2c1c(=O)oc1ccccc21` (configuration not stated), the MIC (as a rule, the lowest concentration that inhibits growth of the organism) is 0.4 µg/mL (≈ 0.961 µM) in the experiment on Staphylococcus aureus [3] and 1.6 µg/mL (≈ 3.84 µM) in the experiment with Pseudomonas aeruginosa [4].

Turning to `CC[N+](CC)(CC)CCCCCCNCc1cn(Cc2cc(=O)oc3cc4c(cc23)CCC(C)(C)O4)nn1.[Br-]`, the “inhibition zone (IZ)” value in the experiment with Staphylococcus aureus [5] was found to be 12 mm; in the experiment with Escherichia coli [6], 10 mm.

For the compound `O=c1oc2ccc(Br)cc2cc1-c1cc2ccc3ccccc3c2o1`, the results for the MIC in the experiment on Staphylococcus aureus [7] and in the experiment with Bacillus subtilis [8] were 0.2 µg/mL (≈ 0.511 µM) and 0.8 µg/mL (≈ 2.04 µM), respectively.

On to `Cc1ccc2cc(-c3cc4ccccc4oc3=O)oc2c1`, for which the MIC in the experiment on Staphylococcus aureus [7] and with Bacillus subtilis [8] was 0.2 µg/mL (≈ 0.724 µM) in each case.

For the compound `CC1(C)S[C@@H]2[C@H](NC(=O)[C@H](N)c3ccccc3)C(=O)N2[C@H]1C(=O)O` [AMPICILLIN], the minimal inhibitory concentration (MIC) in the experiment with Escherichia coli [1] was 4 µg/mL (≈ 11.4 µM); in the experiment on Escherichia coli [9], 6.25 µg/mL (≈ 17.9 µM); in the experiment on Pseudomonas fluorescens it was 4 µg/mL (≈ 11.4 µM); in [2] it was 4 µg/mL (≈ 11.4 µM).

For the compound `CC[N+](CC)(CC)CCCCCCCCNCc1cn(Cc2cc(=O)oc3c(OC)c4c(cc23)CCC(C)(C)O4)nn1.[Br-]`, the “inhibition zone (IZ)” value with Staphylococcus aureus [5] is given as 0 mm; in the experiment with Escherichia coli [6], 2 mm.

For the compound `Cc1cc(OCc2cn(Cc3ccc(Br)cc3)nn2)cc2oc(=O)ccc12`, the MIC with Escherichia coli [1] worked out at 4 µg/mL (≈ 9.38 µM); with Pseudomonas fluorescens it was 4 µg/mL (≈ 9.38 µM); in experiment [2], 2 µg/mL (≈ 4.69 µM).

Regarding `Cc1ccc2cc(-c3cc4cc(Br)ccc4oc3=O)oc2c1`, the minimum inhibitory concentration (MIC) in the experiment with Staphylococcus aureus [7] came to 3.12 µg/mL (≈ 8.78 µM); with Bacillus subtilis [8], 0.2 µg/mL (≈ 0.563 µM).

Take `Cc1cc(=O)oc2cc(OCc3nnc(Nc4ccc(Br)cc4)s3)ccc12`: the “inhibition zone (IZ)” value in the experiment on Klebsiella pneumoniae was determined as 16 mm.

In the case of `Cc1cc(=O)oc2cc(OCc3nnc(Nc4ccc(Cl)cc4)s3)ccc12`, the “inhibition zone (IZ)” value in the experiment with Klebsiella pneumoniae is listed as 15 mm.

With `O=c1cc(OCc2cn(CN3CCN(c4ccc(F)cc4)CC3)c(=S)s2)c2ccccc2o1`, the minimum inhibitory concentration (MIC) in the experiment with Escherichia coli [9] was 12.5 µg/mL (≈ 25.8 µM).

Take `Cc1cc(=O)oc2cc(O)ccc12` [HYMECROMONE]: the minimum inhibitory concentration (MIC) in the experiment on Helicobacter pylori stood at 50 µg/mL (≈ 284 µM).

Take `O=c1oc2ccccc2c(O)c1C(c1c(Cl)cccc1Cl)c1c(O)c2ccccc2oc1=O`: the “inhibition zone (IZ)” value in the experiment with Staphylococcus aureus [10], in the experiment with Pseudomonas aeruginosa [11], in the experiment with Micrococcus luteus and with Escherichia coli [12] was 10 mm each time.

`COC(=O)c1nnn(CC(=O)c2cc3c(ccc4ccccc43)oc2=O)c1C(=O)OC`: the “inhibition (INH)” value in the experiment on Bacillus subtilis [13] and with Escherichia coli [14] was 83.3% throughout.

For the compound `O=c1oc2ccc3ccccc3c2cc1-c1csc(N/N=C/c2cn(-c3ccccc3)nc2-c2cc3ccccc3oc2=O)n1`, in the experiment on Escherichia coli [15], the “inhibition zone (IZ)” value came out at 21 mm.

Regarding `CC(C)(C)NC(=O)c1c(-c2ccccc2)nc(SCc2cc(=O)oc3ccc4ccccc4c23)[nH]c1=O`, the MIC in the experiment with Staphylococcus aureus [16] stood at 2.5 µg/mL (≈ 4.89 µM).

Regarding `O=c1oc2ccccc2c(O)c1-c1cc[nH]n1`, the “inhibition zone (IZ)” value in the experiment with Staphylococcus aureus [17] turned out to be 10 mm.

Consider `O=c1oc2ccccc2cc1-c1nn(-c2ccccc2)cc1/C=N/Nc1nc(-c2ccccc2)cs1`, for which the “inhibition zone (IZ)” value with Escherichia coli [15] is 19 mm.
